# According to PubChem BioAssay (NCI):
#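 96-well plates; 48 h exposure; 5 concentrations. Endpoints by linear interpolation between flanking doses. Not reached: highest tested concentration assigned. TGI: total growth inhibition.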
# Tests used:
# Assay in all cases: NCI tumour cell line growth inhibition, 48 h
# [1] = tested on: IGROV1 ovarian
# [2] = tested on: SW-620 colon
# [3] = tested on: A498 renal
# [4] = tested on: HS 578T breast
# [5] = tested on: COLO 205 colon
# [6] = tested on: HL-60(TB) leukemia
# [7] = tested on: OVCAR-4 ovarian
# [8] = tested on: U251 CNS
# [9] = tested on: BT-549 breast
# [10] = tested on: SF-295 CNS
# [11] = tested on: K-562 leukemia
# [12] = tested on: MDA-MB-231 breast
# [13] = tested on: OVCAR-3 ovarian
# [14] = tested on: MALME-3M melanoma
# [15] = tested on: SF-268 CNS
# [16] = tested on: HOP-92 NSCLC
# [17] = tested on: PC-3 prostate
# [18] = tested on: KM12 colon
# [19] = tested on: NCI-H226 lung
# [20] = tested on: MOLT-4 leukemia
# [21] = tested on: UACC-62 melanoma
# [22] = tested on: 786-0 renal
# [23] = tested on: ACHN renal
# [24] = tested on: T-47D breast
# [25] = tested on: SK-MEL-28 melanoma
# [26] = tested on: OVCAR-5 ovarian
# [27] = tested on: HCT-116 colon
# [28] = tested on: SR leukemia
# [29] = tested on: SN12C renal
# [30] = tested on: M14 melanoma
# [31] = tested on: A549 NSCLC
# [32] = tested on: SNB-75 CNS
# [33] = tested on: SNB-19 CNS
# [34] = tested on: MCF7 breast
# [35] = tested on: NCI-H522 lung
# [36] = tested on: RXF 393 renal
# [37] = tested on: DU-145 prostate
# [38] = tested on: EKVX NSCLC
# [39] = tested on: SK-OV-3 ovarian
# [40] = tested on: SK-MEL-5 melanoma
# [41] = tested on: SF-539 CNS
# [42] = tested on: RPMI-8226 leukemia
# [43] = tested on: CAKI-1 renal
# [44] = tested on: MDA-MB-435
# [45] = tested on: UACC-257 melanoma
# [46] = tested on: OVCAR-8 ovarian
# [47] = tested on: LOX IMVI melanoma
# [48] = tested on: HCT-15 colon
# [49] = tested on: UO-31 renal
# [50] = tested on: NCI-H460 lung
# [51] = tested on: HOP-62 NSCLC
# [52] = tested on: HCC-2998 colon
# [53] = tested on: HT29 colon
# [54] = tested on: NCI-H23 lung
# [55] = tested on: MDA-N
# [56] = tested on: NCI/ADR-RES ovarian
# [57] = tested on: TK-10 renal
# [58] = tested on: SK-MEL-2 melanoma
# [59] = tested on: CCRF-CEM leukemia
structure (smiles),measurement,setting,value
O=C(Oc1cccc2cccnc12)c1cc2cc(CCl)ccc2oc1=O,TGI,[1],> 100 µM
same,TGI,[2],> 100 µM
same,TGI,[3],> 100 µM
same,TGI,[4],> 100 µM
same,TGI,[5],39.9 µM
same,TGI,[6],77.4 µM
same,TGI,[7],> 100 µM
same,TGI,[8],88.4 µM
same,TGI,[9],> 100 µM
same,TGI,[10],> 100 µM
same,TGI,[11],> 100 µM
same,TGI,[12],89.4 µM
same,TGI,[13],> 100 µM
same,TGI,[14],39.7 µM
same,TGI,[15],52.7 µM
same,TGI,[16],> 100 µM
same,TGI,[17],31.3 µM
same,TGI,[18],> 100 µM
same,TGI,[19],> 100 µM
same,TGI,[20],> 100 µM
same,TGI,[21],36.8 µM
same,TGI,[22],46.7 µM
same,TGI,[23],> 100 µM
same,TGI,[24],54.5 µM
same,TGI,[25],> 100 µM
same,TGI,[26],> 100 µM
same,TGI,[27],13.8 µM
same,TGI,[28],> 100 µM
same,TGI,[29],54.4 µM
same,TGI,[30],88.4 µM
same,TGI,[31],> 100 µM
same,TGI,[32],> 100 µM
same,TGI,[33],> 100 µM
same,TGI,[34],11.4 µM
same,TGI,[35],8.87 µM
same,TGI,[36],49.6 µM
same,TGI,[37],> 100 µM
same,TGI,[38],6.38 µM
same,TGI,[39],> 100 µM
same,TGI,[40],> 100 µM
same,TGI,[41],> 100 µM
same,TGI,[42],> 100 µM
same,TGI,[43],85.5 µM
same,TGI,[44],> 100 µM
same,TGI,[45],> 100 µM
same,TGI,[46],> 100 µM
same,TGI,[47],> 100 µM
same,TGI,[48],24.2 µM
same,TGI,[49],72.2 µM
same,TGI,[50],40.9 µM
same,TGI,[51],> 100 µM
same,TGI,[52],50.6 µM
same,TGI,[53],33 µM
same,TGI,[54],42.8 µM
same,TGI,[55],> 100 µM
same,TGI,[56],> 100 µM
same,TGI,[57],> 100 µM
same,TGI,[58],79.8 µM
CC1=CN(c2ccccc2)S2=C1c1sc3c(c1N2c1ccc(Br)cc1)CCCC3 (stereo not given),TGI,[1],> 100 µM
same,TGI,[2],> 100 µM
same,TGI,[3],> 100 µM
same,TGI,[4],> 100 µM
same,TGI,[5],> 100 µM
same,TGI,[6],> 100 µM
same,TGI,[7],> 100 µM
same,TGI,[8],> 100 µM
same,TGI,[9],> 100 µM
same,TGI,[10],> 100 µM
same,TGI,[11],> 100 µM
same,TGI,[12],> 100 µM
same,TGI,[59],> 100 µM
same,TGI,[13],> 100 µM
same,TGI,[15],> 100 µM
same,TGI,[16],> 100 µM
same,TGI,[17],> 100 µM
same,TGI,[18],> 100 µM
same,TGI,[19],> 100 µM
same,TGI,[20],> 100 µM
same,TGI,[21],> 100 µM
same,TGI,[22],> 100 µM
same,TGI,[23],> 100 µM
same,TGI,[24],> 100 µM
same,TGI,[25],> 100 µM
same,TGI,[26],> 100 µM
same,TGI,[27],> 100 µM
same,TGI,[28],> 100 µM
same,TGI,[29],> 100 µM
same,TGI,[30],> 100 µM
same,TGI,[31],> 100 µM
same,TGI,[33],> 100 µM
same,TGI,[34],> 100 µM
same,TGI,[35],> 100 µM
same,TGI,[36],> 100 µM
same,TGI,[37],> 100 µM
same,TGI,[38],> 100 µM
same,TGI,[39],> 100 µM
same,TGI,[40],> 100 µM
same,TGI,[41],> 100 µM
same,TGI,[42],> 100 µM
same,TGI,[43],> 100 µM
same,TGI,[44],> 100 µM
same,TGI,[45],> 100 µM
same,TGI,[46],> 100 µM
same,TGI,[47],> 100 µM
same,TGI,[48],> 100 µM
same,TGI,[49],> 100 µM
same,TGI,[50],> 100 µM
same,TGI,[51],> 100 µM
same,TGI,[52],> 100 µM
same,TGI,[53],> 100 µM
same,TGI,[54],> 100 µM
same,TGI,[55],> 100 µM
same,TGI,[56],> 100 µM
same,TGI,[57],> 100 µM
same,TGI,[58],> 100 µM
